The values that follow come from US10273241B2 (President and Fellows of Harvard College, priority 2013, dated 2019).

Where two headings read alike, the source gives them in different places.

Holding throughout (format): cell-based, human
For test [1], the system named is MV4;11. Kind of test: Cell growth assay, MV4;11 AML cell line. Conditions: Homo sapiens. On the procedure:
(§1) For all other cell lines, compounds were serially diluted in medium and dispensed in triplicate in 96-well plates (0.1% DMSO final for assay) followed by the addition of exponentially growing cells at densities ranging from 5,000 to 30,000 cells/well. Cells were also seeded into 2 additional control wells containing vehicle (0.1% DMSO). […] To determine the estimated cell number in each well, cells that were counted in the control well were diluted 3-fold for an 8-point dilution series, and transferred to 384-well plates in duplicate, 20 μL per well. Cells in all other wells were diluted 4-fold and transferred to 384-well plates in duplicate, 20 μL per well. 20 μL of CellTiter-Glo (Promega) was subsequently added to all wells and luminescence was detected using a SPECTRAmax M3. The control well dilution series was fit to a linear regression and used as a standard for calculating the estimated cell number for each well. For days 7 and 10, total estimated cell number represents the split-adjusted theoretical cell number.

For test [2], the system named is MOLM-14. Kind of test: Cell growth assay, MOLM-14 AML cell line. Particulars: Homo sapiens. The procedure: as §1
Test [3] relates to K562. Kind of test: Cell growth assay, K562 cell line. Conditions: Homo sapiens, K562, 240 h; day 10; lack of activity is taken as evidence of on-target selectivity. The procedure:
For all other cell lines, compounds were serially diluted in medium and dispensed in triplicate in 96-well plates (0.1% DMSO final for assay) followed by the addition of exponentially growing cells at densities ranging from 5,000 to 30,000 cells/well. Cells were also seeded into 2 additional control wells containing vehicle (0.1% DMSO). After 3 days, the number of viable cells in one of the control wells was counted by hemocytometer or MOXI Z (Orflo) and an equal volume of cells for all wells were split-back with fresh vehicle/compounds such that the resulting seeding density for the control well was 5,000-30,000 cells/well, matching the initial seeding density in that well. This procedure was repeated on day 7 and day 10. % growth was calculated as % growth=100×(total estimated cell number in well−day 0 starting cell number)/(total average vehicle estimated cell number−day 0 starting cell number). To determine the estimated cell number in each well, cells that were counted in the control well were diluted 3-fold for an 8-point dilution series, and transferred to 384-well plates in duplicate, 20 μL per well. Cells in all other wells were diluted 4-fold and transferred to 384-well plates in duplicate, 20 μL per well. 20 μL of CellTiter-Glo (Promega) was subsequently added to all wells and luminescence was detected using a SPECTRAmax M3. The control well dilution series was fit to a linear regression and used as a standard for calculating the estimated cell number for each well. For days 7 and 10, total estimated cell number represents the split-adjusted theoretical cell number.

Setting [4] is: MV4-11, 240 h, day 10, cells passaged, fresh compound added on days 3 and 7, read-out: MV 4;11 GI50 day 10.
The mark [5] stands for this setting: MOLM-14, 240 h, day 10, cells passaged, fresh compound added on days 3 and 7, read-out: MOL M14 G150 day 10.
Where [6] appears, read: MV4-11, day 7, fresh compound added on day 3, read-out: MV4;11 GI50 day 7.
Where [7] appears, read: MOLM-14, day 7, fresh compound added on day 3, read-out: MOL M14 GI50 day 7.
The mark [8] stands for this setting: MV4-11, 168 h, day 7, printed as symbol, read-out: MV4;11 GI50 day 7.
Where [9] appears, read: MOLM-14, 168 h, day 7, printed as symbol, read-out: MOL M14 GI50 day 7.

As for `C[C@]12CC=C3C=C4CC[C@@H](NS(C)(=O)=O)C[C@]45CCC3(O5)[C@@H]1CC[C@@H]2c1ccc2ccncc2c1` [73A, α-methylsulfonamide], the figures for the GI50 in test [1] (setting [4]), in test [2] (setting [5]) and in test [3] were 90 nM, 200 nM and above 1000 nM, respectively.

On to `C[C@]12CC=C3C=C4CC[C@H](N5CCOCC5)C[C@]45CCC3(O5)[C@@H]1CC[C@@H]2c1ccc2ccncc2c1` [15B, β-morpholine], for which the GI50 in test [1] (setting [4]) was 12 nM; in test [2] (setting [5]), 12.5 nM; in test [3], above 1000 nM.

Turning to `CN1CCN([C@H]2CCC3=CC4=CC[C@]5(C)[C@@H](c6ccc7ccncc7c6)CC[C@H]5C45CC[C@]3(C2)O5)CC1` [16B, β-N-methylpiperazine], the GI50 in test [1] (setting [4]) was 8 nM; in test [1] (setting [6]), 15 nM; in test [2] (setting [5]) it was 9 nM; in test [2] (setting [7]), 17 nM; in test [3], above 1000 nM.

For `CC1(C)NC(=O)N([C@@H]2CCC3=CC4=CC[C@]5(C)[C@@H](c6ccc7ccncc7c6)CC[C@H]5C45CC[C@]3(C2)O5)C1=O` [74A, α-dimethylhydantoin], the GI50 in test [1] (setting [4]) was 400 nM; in test [2] (setting [5]), 800 nM; in test [3], above 1000 nM.

With `COCCN(C)[C@H]1CCC2=CC3=CC[C@]4(C)C(c5ccc6ccncc6c5)CC[C@H]4[C@@]34CC[C@]2(C1)O4` (stereo partly drawn) [27B, β-2-methoxyethylmethylamine], the GI50 in test [1] (setting [4]) came to 7 nM; in test [2] (setting [5]), 10 nM.

Turning to `CN(C1CC1)[C@H]1CCC2=CC3=CC[C@]4(C)C(c5ccc6ccncc6c5)CC[C@H]4C34CC[C@]2(C1)O4` (stereo partly drawn) [40B, β-Cyclopropylmethylamine], the GI50 worked out at 16 nM in test [1] (setting [4]) and 25 nM in test [2] (setting [5]).

With `C[C@]12CC=C3C=C4CC[C@H](N5CCC5)C[C@]45CCC3(O5)[C@@H]1CC[C@@H]2c1ccc2ccncc2c1` [18B, β-azetidine], the GI50 in test [1] (setting [4]) is 13 nM; in test [1] (setting [6]), 20 nM; in test [2] (setting [5]), 13 nM; in test [2] (setting [7]), 25 nM; in test [3], above 1000 nM.

As to `CC(C)N(C)[C@H]1CCC2=CC3=CC[C@]4(C)[C@@H](c5ccc6ccncc6c5)CC[C@H]4[C@@]34CC[C@]2(C1)O4` [33B, β-isopropylmethylamine], the GI50 in test [1] (setting [4]) worked out at 22 nM; in test [2] (setting [5]), 60 nM.

`C[C@]12CC=C3C=C4CC[C@H](N5CCC(F)(F)C5)C[C@]45CC[C@]3(O5)[C@@H]1CC[C@@H]2c1ccc2ccncc2c1` [37B, β-3,3-difluoropyrrolidine]: the results for the GI50 in test [1] (setting [4]) and in test [2] (setting [5]) were 65 nM and 200 nM, respectively.

With `CC(C)(C)N[C@H]1CCC2=CC3=CC[C@]4(C)C(c5ccc6ccncc6c5)CC[C@H]4C34CC[C@]2(C1)O4` (stereo partly drawn) [43B, β-t-butylamine], the GI50 was found to be 95 nM in test [1] (setting [4]) and 150 nM in test [2] (setting [5]).

`CCN(C(C)C)[C@H]1CCC2=CC3=CC[C@]4(C)[C@@H](c5ccc6ccncc6c5)CC[C@H]4[C@@]34CC[C@]2(C1)O4` [34B]: in test [1] (MV4-11, 240 h, read-out: MV 4;11 GI50 day 10 (nM)), the GI50 turned out to be 8.5 nM. Also, the IC50 in test [2] (MOLM-14, 240 h, read-out: MOL M14 G150 day 10 (nM)) came out at 15 nM.

On to `CN[C@H]1CCC2=CC3=CC[C@]4(C)C(c5ccc6ccncc6c5)CC[C@H]4C34CC[C@]2(C1)O4` (stereo partly drawn) [24B, β-monomethylamine], for which the GI50 worked out at 20 nM in test [1] (setting [4]) and 50 nM in test [2] (setting [5]).

Take `C[C@]12CC=C3C=C4CC[C@@H](N5CCC5)CC45CC[C@]3(O5)[C@@H]1CC[C@@H]2c1ccc2ccncc2c1` [18A, α-azetidine]: the GI50 in test [1] (setting [4]) was 1 nM; in test [2] (setting [5]), 3 nM.

For the molecule `CC(C)(C)N[C@@H]1CCC2=CC3=CC[C@]4(C)C(c5ccc6ccncc6c5)CC[C@H]4C34CC[C@]2(C1)O4` (stereo partly drawn) [43A, α-t-butylamine], the GI50 in test [1] (setting [4]) came to 175 nM; in test [2] (setting [5]), 200 nM.

For `COCCN(CCOC)[C@H]1CCC2=CC3=CC[C@]4(C)C(c5ccc6ccncc6c5)CC[C@H]4[C@@]34CC[C@]2(C1)O4` (stereo partly drawn) [28B, β-bis-2-methoxyethylamine], the GI50 in test [1] (setting [4]) was 9.5 nM; in test [2] (setting [5]) it was 15 nM.

Regarding `C[C@]12CC=C3C=C4CC[C@@H](NCC5(O)COC5)CC45CC[C@]3(O5)[C@@H]1CC[C@@H]2c1ccc2ccncc2c1` [72A, α-hydroxyaminomethyloxetane], the results for the GI50 in test [1] (setting [4]) and in test [2] (setting [5]) were 8 nM and 4 nM, respectively.

Take `C[C@]12CC=C3C=C4CC[C@H](N5CC[C@@H](F)C5)C[C@]45CC[C@]3(O5)[C@@H]1CC[C@@H]2c1ccc2ccncc2c1` [35B, β-(R)-3-fluoropyrrolidine]: the GI50 in test [1] (setting [4]) stood at 80 nM; in test [2] (setting [5]), 160 nM.

As for `CN(C)[C@H]1CCC2=CC3=CC[C@]4(C)[C@@H](C(=O)Nc5cccnc5)CC[C@H]4[C@@]34CCC2(C1)O4` [50B, β-dimethylamine amidepyridine], the GI50 in test [1] (setting [8]) and in test [2] (setting [9]) was above 1000 nM throughout.

For the molecule `C[C@]12CC=C3C=C4CC[C@H](N5CCC6(COC6)C5)C[C@]45CCC3(O5)[C@@H]1CCC2c1ccc2ccncc2c1` (stereo partly drawn) [38B, β-2-oxa-6-azaspiro[3.4]octane], the GI50 in test [1] (setting [4]) and in test [2] (setting [5]) was 10 nM throughout.

Turning to `C[C@]12CC=C3C=C4CC[C@H](NC5CC5)C[C@]45CCC3(O5)[C@@H]1CCC2c1ccc2ccncc2c1` (stereo partly drawn) [39B, β-cyclopropylamine], the figures for the GI50 in test [1] (setting [4]) and in test [2] (setting [5]) were 17 nM and 30 nM, respectively.

Regarding `C[C@]12CC=C3C=C4CC[C@H](N5[C@H]6CC[C@@H]5CC6)C[C@]45CC[C@]3(O5)[C@@H]1CC[C@@H]2c1ccc2ccncc2c1` [31B, β-7-Azabicyclo[2.2.1]heptane], the figures for the GI50 in test [1] (setting [4]) and in test [2] (setting [5]) were 75 nM and 100 nM, respectively.

As to `CN(C)[C@H]1CCC2=CC3=CC[C@]4(C)C(c5ccc6ccncc6c5)=CC[C@H]4[C@@]34CC[C@]2(C1)O4` [23B, β-dimethylamine 17,18-unsaturated isoquinoline], the GI50 is 35 nM in test [1] (setting [4]), 55 nM in test [2] (setting [5]) and above 1000 nM in test [3].

As for `CN(C)[C@H]1CCC2=CC3=CC[C@]4(C)[C@@H](NCc5cccnc5)CC[C@H]4C34CC[C@]2(C1)O4` [46B, β-dimethylamine aminomethylpyridine], the GI50 in test [1] (setting [8]) and in test [2] (setting [9]) was above 1000 nM throughout.

`C[C@]12CC=C3C=C4CC[C@H](NS(C)(=O)=O)C[C@]45CCC3(O5)[C@@H]1CC[C@@H]2c1ccc2ccncc2c1` [73B, β-methylsulfonamide]: the GI50 is 150 nM in test [1] (setting [4]), 200 nM in test [2] (setting [5]) and above 1000 nM in test [3].

For the molecule `CN(C)[C@H]1CCC2=CC3=CC[C@]4(C)C(c5ccc6cn[nH]c6c5)=CC[C@H]4C34CC[C@]2(C1)O4` [58B, β-dimethylamine 17,18-unsaturated 6-indazole], the GI50 in test [1] (setting [8]) and in test [2] (setting [9]) was above 1000 nM each time.

Consider `C[C@]12CC=C3C=C4CC[C@H](N)CC45CC[C@]3(O5)[C@@H]1CC[C@@H]2c1ccc2ccncc2c1` [62B, β-primaryamine], for which the GI50 in test [1] (setting [4]) is 20 nM; in test [2] (setting [5]), 70 nM.

`C[C@]12CC=C3C=C4CC[C@@H](NCCS(N)(=O)=O)C[C@]45CCC3(O5)[C@@H]1CC[C@@H]2c1ccc2ccncc2c1` [71A]: the GI50 came out at 2 nM in test [1] (setting [4]) and 20 nM in test [2] (setting [5]).

Regarding `CC1(N[C@H]2CCC3=CC4=CC[C@]5(C)C(c6ccc7ccncc7c6)CC[C@H]5C45CC[C@]3(C2)O5)COC1` (stereo partly drawn) [41B, β-3-methyl-3-oxetanamine], the GI50 in test [1] (setting [4]) turned out to be 8 nM; in test [2] (setting [5]), 16 nM.

For `CN(C)[C@H]1CCC2=CC3=CC[C@]4(C)C(c5ccc6cnncc6c5)=CC[C@H]4C34CC[C@]2(C1)O4` [55B, β-dimethylamine 17,18-unsaturated phthalazine], the GI50 in test [1] (setting [8]) and in test [2] (setting [9]) was above 1000 nM throughout.

With `CN(C)[C@H]1CCC2=CC3=CC[C@]4(C)C(c5ccc6[nH]ncc6c5)=CC[C@H]4C34CC[C@]2(C1)O4` [61B, β-dimethylamine 17,18-unsaturated 5-indazole], the GI50 in test [1] (setting [8]) and in test [2] (setting [9]) was above 1000 nM each time.
